Patent publication US9895381B2, “Vitamin D receptor agonists to treat diseases involving CXCL12 activity” (Salk Institute for Biological Studies, priority 2013, dated 2018)

Test system: wild-type C57BL6/J mice
Test: Cerulein-induced chronic pancreatitis model
Format: in vivo, mouse
Settings: for inflammation and fibrosis: cerulein plus 40 μg/kg calcipotriol i.p. vs cerulein alone
Procedure: Tissues were embedded in O.C.T. and frozen sections were fixed in ice-cold methanol at −20° C. for 20 min. Sections were blocked in PBS+0.2% BSA+0.05% Triton X-100 (blocking solution) for 1 h at room temperature. Primary antibody dilutions in blocking solution were as follows: anti-phospho-STAT3(Tyr705), 1:100 (Cell Signaling Technology); anti-Collagen I, 1:500 (Abcam), anti-GFAP, 1:100 (Abcam); anti-CD45, 1:100 (BD Pharmingen). Primary antibody incubations were performed in a humidified chamber at 4° C. overnight. Sections were washed 3 times with PBS+0.05% Triton X-100, then incubated in secondary antibodies for 1 h at room temperature, protected from light. Secondary antibodies used included Alexa Fluor 594 goat anti-rabbit IgG, Alexa Fluor 488 goat anti-rabbit IgG, Alexa Fluor 594 goat anti-rat IgG, and Alexa Fluor 488 goat anti-mouse IgG (Molecular Probes) and were used at 1:250 in blocking solution. Sections were washed 3 times with PBS and mounted using Vectastain mounting medium with or without DAPI. Fluorescence was visualized on a Leica DM5000B fluorescent microscope and quantified using ImageJ. Chronic pancreatitis was induced in wild-type C57BL6/J mice beginning at 8 weeks of age. Ten animals per cohort received intraperitoneal injections of saline, 50 μg/kg cerulein, or cerulein plus 40 μg/kg calcipotriol. Cerulein injections were administered as 6 hourly injections 2 times per week for 12 weeks and analyzed 1 week after final cerulein injection, adapted from previous studies (Sah et al., 2013; Treiber et al., 2011; Yoo et al., 2005). Calcipotriol injections were administered 3 times per week for the duration of the chronic pancreatitis study. For acute pancreatitis studies, 8-week-old wild-type or Vdr−/− mice received 6 hourly intraperitoneal injections of 50 μg/kg cerulein on days 1, 3, and 5, with or without single daily injections of 40 μg/kg calcipotriol. Mice were sacrificed on day 6. At necropsy, pancreata were harvested and digested for PSC isolation as described above, or prepared for histological analysis as described herein. Histological sections were cut from formalin-fixed tissues at 7 μm thickness Sirius Red/Fast Green staining (Chondrex) was performed per manufacturer's instructions. Images were obtained and quantification of Sirius Red-positive area performed using Nuance 3.0.1.2 software. Six independent fields were captured per sample.

C=C1/C(=C\C=C2/CCC[C@]3(C)[C@@H]([C@H](C)/C=C/[C@@H](O)C4CC4)CC[C@@H]23)C[C@@H](O)C[C@@H]1O [Cal, 1α,24-(OH)2-24-cyclopropyl-D3]
inflammation and fibrosis: attenuated inflammation and fibrosis
inflammation and fibrosis (listed as calcipotriol): markedly reduced inflammation and fibrosis
Acta2 expression in isolated PSCs (cerulein+Cal 12 weeks): trended downwards
phospho-Stat3 induction (cerulein+Cal 12 weeks): reduced induction of phospho-Stat3
expression of activation and cancer signature genes in isolated PSCs (cerulein+Cal 12 weeks vs controls): decreased
